Laboratory results reported in paper PMC7827417, “Steroid Glycosides Hyrcanoside and Deglucohyrcanoside: On Isolation, Structural Identification, and Anticancer Activity” (Foods, 2021).
Read-outs that look alike come from different tables or passages of the source.

Experiments:
[1] = test system: K562; experiment: MTS cytotoxic assay, K562; format: cell-based; conditions: Homo sapiens
Text: (§1) If not indicated otherwise, the cell lines were purchased from the American Type Culture Collection (ATCC). […] K562 is the erythroid-myeloid precursor cell line derived from chronic myeloid leukemia carrying the BCR-ABL hybrid gene. A549, MCF-7, PC-3, 5637, U-2 OS, and MiaPaCa-2 are cells derived from lung, breast, prostate, bladder carcinoma, osteosarcoma, and pancreatic adenocarcinoma, respectively. HEK 293T are transformed human embryonic kidney cells, and L929 (Sigma, St. Louis, MS, USA) are transformed mouse fibroblasts. HCT116, cells from colorectal carcinoma, and their p53 gene knock-out variant (HCT116p53-/-) were purchased from Horizon Discovery. This cell line is a model of human tumors bearing p53 loss-of-function mutations or biallelic deletion of the p53 gene, frequently associated with poor prognosis. The MRC-5 and BJ cells were used as noncancerous cells; more specifically, they are human fibroblasts from the lungs and foreskin, respectively. According to the supplier’s recommendations, all cells were cultured at 37 °C in a 5% CO2 atmosphere and 100% humidity. The culture media used were: DMEM, RPMI 1640, and MEM (according to a cell line); all were supplemented with 5 g L^−1 glucose, 10% fetal calf serum, 2 mM glutamine, 100 U mL^−1 penicillin, 100 µg mL^−1 streptomycin, and NaHCO3. Cells were passaged every two or three days using 0.25% trypsin plus 0.01% EDTA (ethylenediamine tetraacetic acid) in phosphate-buffered saline.
(§2) To evaluate compound cytotoxicity, cells were seeded in 384-well microtiter plates in a volume of […]. The next day, aliquots of the tested derivatives were transferred with Echo550 acoustic liquid handler (Labcyte) to obtain dose response curves with dilution factor 4. The experiments were performed in technical duplicates and three or more biological replicates. After 72 h of incubation in a humidified incubator, […] of the MTS/PMS stock solution were pipetted into each well. After another 1–4 h of incubation, the absorbance at 490 nm was measured using an EnVision Multilabel Plate Reader (PerkinElmer).

[2] = test system: 5637; experiment: MTS cytotoxic assay, 5637; format: cell-based; conditions: Homo sapiens, 72 h
Text: as §1, §2

[3] = test system: BJ; experiment: MTS cytotoxic assay, BJ; format: cell-based; conditions: Homo sapiens, 72 h
Text: as §1, §2

[4] = test system: HEK 293T; experiment: MTS cytotoxic assay, HEK 293T; format: cell-based; conditions: Homo sapiens, 72 h
Text: as §1, §2

[5] = test system: MiaPaCa-2; experiment: MTS cytotoxic assay, MiaPaCa-2; format: cell-based; conditions: Homo sapiens
Text: as §1, §2

[6] = test system: CCRF-CEM cells; experiment: Cell cycle arrest and cell death analysis by flow cytometry (propidium iodide, pH3Ser10); format: cell-based, human; conditions: % of positive cells
Method: Together with the CG-treated cells, a vehicle-treated sample was harvested at the same time point. After 24 h, the cells were washed with cold phosphate-buffered saline, fixed dropwise in 70% ethanol, and stored overnight at −20 °C. The cells were then washed with hypotonic citrate buffer, treated with RNAse (50 µg mL^−1), and stained with propidium iodide. Flow cytometry using a 488 nm laser (FACS-Calibur, Becton Dickinson, NJ, USA) was used for measurement. The cell cycle was analyzed by the ModFitLT program (Verity), and apoptosis was measured in a logarithmic model expressing the percentage of particles with a lower propidium content than cells in the G0/G1 phase (<G1) of the cell cycle in the CellQuest program (Becton Dickinson). Half of the sample was used to label cells with pH3^Ser10-FITC antibody (Exbio) for subsequent flow cytometry analysis of mitotic cells.

[7] = test system: CCRF-CEM cells; experiment: BrU incorporation analysis (RNA synthesis); format: cell-based, human; conditions: % of positive cells
Method: The cells were cultured and processed as described above. Before harvesting, the cells were pulse-labeled with 1 mM of 5-bromouridine (BrU) for 30 min. The cells were then fixed in 1% buffered paraformaldehyde with 0.05% NP-40 at room temperature for 15 min, and then stored at 4 °C overnight. Before measurement, they were washed with 1% glycine in PBS, washed again with PBS, and stained with primary anti-BrdU antibody cross-reactive to BrU (Exbio) for 30 min at room temperature in the dark. From this point on, the experiment was performed exactly as in the method described above.

[8] = test system: L929; experiment: MTS cytotoxic assay, L929; format: cell-based, mouse
Text: as §1, §2

[9] = test system: MRC-5; experiment: MTS cytotoxic assay, MRC-5; format: cell-based; conditions: Homo sapiens
Text: as §1, §2

[10] = test system: HCT116; experiment: MTS cytotoxic assay, HCT116; format: cell-based; conditions: Homo sapiens
Text: as §1, §2

[11] = test system: U-2 OS; experiment: MTS cytotoxic assay, U-2 OS; format: cell-based; conditions: Homo sapiens, U2OS, 72 h
Text: as §1, §2

SMILES | IC50 ([1]; K562, 72 h) [µM] | IC50 [2] [µM] | IC50 ([3]; BJ) [µM] | IC50 ([4]; HEK-293T) [µM] | IC50 ([5]; MIA PaCa-2, 72 h) [µM] | < G1 (apoptotic cells) ([6]; 1 × IC50, 24 h) [%] | G0/G1 ([6]; 1 × IC50, 24 h) [%] | G2/M ([6]; 1 × IC50, 24 h) [%] | M (Phospho-Histone3 (Ser10)) ([6]; 1 × IC50, 24 h) [%] | S ([6]; 1 × IC50, 24 h) [%] | < G1 (apoptotic cells) ([6]; 5 × IC50, 24 h) [%] | G0/G1 ([6]; 5 × IC50, 24 h) [%] | G2/M ([6]; 5 × IC50, 24 h) [%] | M (Phospho-Histone3 (Ser10)) ([6]; 5 × IC50, 24 h) [%] | S ([6]; 5 × IC50, 24 h) [%] | BrU ([7]; 1 × IC50, 24 h) [%] | BrU ([7]; 5 × IC50, 24 h) [%] | IC50 ([8]; Mus musculus, L929, 72 h) [µM] | IC50 ([9]; MRC5, 72 h) [µM] | IC50 ([10]; HCT-116, 72 h) [µM] | further results
C[C@]12CC[C@H]3[C@@H](CCC4=C[C@@H](O[C@@H]5OC[C@@H](O[C@@H]6O[C@H](CO)[C@@H](O)[C@H](O)[C@H]6O)[C@H](O)[C@H]5O)CC[C@@]43C=O)[C@@]1(O)CC[C@@H]2C1=CC(=O)OC1 [Hyr, (3β)-3-[(4-O-β-D-glucopyranosyl-β-D-xylopyranosyl)oxy]-14-hydroxy-19-oxocarda-4,20(22)-dienolide] | 0.8 ± 0.052 | 1.51 ± 0.051 | 1.45 ± 0.25 | 0.383 ± 0.0089 | 0.491 ± 0.023 | 2.82 | 38.48 | 26.30 | 1.41 | 35.22 | 5.82 | 42.13 | 34.86 | 0.95 | 23.01 | 28.80 | 3.82 | > 10 | 0.302 ± 0.043 | 0.67 ± 0.037 | IC50 [11]: 1.1 ± 0.059 µM
C[C@@H]1O[C@@H](O[C@H]2C[C@@H](O)[C@]3(CO)[C@H]4[C@H](O)C[C@]5(C)[C@@H](C6=CC(=O)OC6)CC[C@]5(O)[C@@H]4CC[C@]3(O)C2)[C@H](O)[C@H](O)[C@H]1O [Ob, ouabain] |  |  |  |  |  | 20.68 | 40.42 | 33.80 | 1.73 | 25.78 | 33.31 | 33.94 | 25.27 | 0.63 | 40.80 | 39.77 | 6.56 |  |  |  | IC50 ([1]; K562, MTS, 72 h, read-out: IC50): 0.057 ± 0.0062 µM; IC50 ([2]; 5637, MTS, read-out: IC50): 0.11 ± 0.011 µM; IC50 ([3]; BJ noncancerous foreskin fibroblasts, MTS, read-out: IC50): 0.054 ± 0.0099 µM; IC50 ([4]; HEK 293T, MTS, read-out: IC50): 0.035 ± 0.0012 µM; IC50 ([5]; MIA PaCa-2, MiaPaCa-2, MTS, 72 h, read-out: IC50): 0.049 ± 0.00201 µM; IC50 ([8]; L929 mouse transformed fibroblasts, MTS, 72 h, read-out: IC50): > 10 µM; IC50 ([9]; MRC5, MRC-5 noncancerous lung fibroblasts, MTS, 72 h, read-out: IC50): 0.039 ± 0.0016 µM; IC50 ([10]; HCT-116, HCT116, MTS, 72 h, read-out: IC50): 0.03 ± 0.0036 µM; IC50 ([11]; U-2 OS, MTS, read-out: IC50): 0.059 ± 0.0011 µM
CO[C@H]1C[C@H](O[C@H]2CC[C@]3(C=O)[C@H]4CC[C@]5(C)[C@@H](C6=CC(=O)OC6)CC[C@]5(O)[C@@H]4CC[C@]3(O)C2)O[C@H](C)[C@H]1O [Cy, cymarin] | 0.025 ± 0.0045 | 0.089 ± 0.0055 | 0.054 ± 0.01 | 0.00302 ± 0.0014 | 0.044 ± 0.0086 | 2.89 | 35.78 | 24.35 | 1.43 | 39.87 | 7.01 | 40.34 | 28.49 | 1.08 | 31.17 | 35.63 | 27.52 | > 10 | 0.026 ± 0.0024 | 0.021 ± 0.0025 | IC50 [11]: 0.043 ± 0.0018 µM
C[C@]12CC[C@H]3[C@@H](CCC4=C[C@@H](O[C@@H]5OC[C@@H](O)[C@H](O)[C@H]5O)CC[C@@]43C=O)[C@@]1(O)CC[C@@H]2C1=CC(=O)OC1 [deHyr, deglucohyrcanoside] | 0.13 ± 0.021 | 0.398 ± 0.046 | 0.23 ± 0.035 | 0.038 ± 0.00097 | 0.12 ± 0.0052 | 22.02 | 44.90 | 37.50 | 1.44 | 17.60 | 27.43 | 39.12 | 26.34 | 1.56 | 34.53 | 38.91 | 12.17 | > 10 | 0.077 ± 0.012 | 0.14 ± 0.016 | IC50 [11]: 0.165 ± 0.011 µM
